Measured values from article PMC11793105, “A kalihinol analog disrupts apicoplast function and vesicular trafficking in P. falciparum malaria” (Science (New York, N.Y.), 2024).

What was measured:
[1] = target: BSEP (bile salt export pump) (Homo sapiens, UniProt O95342); experiment: Enhanced Cross Screen Panel (eXP): BSEP inhibition
[2] = tested on: synchronized P. falciparum 3D7 parasites; experiment: Parasitemia and asexual stage phenotype analyses; assay type: cell-based, Plasmodium falciparum; details: IC80, synchronized 3D7, second IEC
Method: Fig. 1. […] (B) SYBR Green–based dose response assays were conducted on early-ring stage parasites (6 hours after invasion). […] 3D7 WT (blue), NF54 (green), drug-resistant strains Dd2 (red), HB3 (black), W2 (gray), and D10-ACP-GFP (purple) lines (Sigmoidal, 4PL, X is concentration, n ≥ 3, nonlinear regression, CI: 95%). (C) Schematic diagram of the development of P. falciparum after two consecutive erythrocytic cycles. The time points at which MED6-189 was introduced are depicted in green. HPS, hours post synchronization. […] The images depict various developmental stages of the parasite’s intraerythrocytic life cycle. Bordered images represent time points when drug was first introduced (n = 3 biological replicates, P < 0.05). […]
Data analysis The percentage of parasitized erythrocytes was determined by enumerating the number of Hoechst positive events out of the total erythrocytes after excluding non-single cells by forward and side scatter. The percent survival was calculated by averaging the parasitemia in the triplicates for each condition and then dividing by the parasitemia observed in the wells that did not receive drug treatment. The IC50 was then calculated using GraphPad Prism 9 (GraphPad […]
hrs. […] Parasitemia and proportion of the different asexual blood stages were determined by counting Giemsa-stained blood smears by light microscopy at every 12-hour time point. […]

[3] = tested on: P. falciparum 3D7 Clone / 3D7 Parental; experiment: SYBR Green dose response, cloned 3D7 control/parental lines of the resistance selection; assay type: cell-based, Plasmodium falciparum
Source text: To assess whether we could use the DMSO melting curves previously established for […] by Dziekan et al. ([49]), we calculated the difference in melting temperatures (ΔTm) between our DMSO dataset and Dziekan’s for 364 proteins for which Tm values were confidently calculated by mineCETSA (table S6).
Fig. 4. […] (C) Schematic representation of the CRISPR-Cas9–based replacement strategy used to introduce a deletion of the targeted repeat regions in the PfSec13 gene. The insertion was achieved through overlap extension polymerase chain reaction (PCR) of fragments directly upstream and downstream of the target segment and subsequently formed by primer overlap extension PCR to replicate the desired deletion. […] (D) Predicted structure of the SEC13 protein highlighting the seven amino acid tandem repeat regions targeted for deletion (red). […] Data were analyzed using a Sigmoidal, 4PL (X represents concentration, n = 3, nonlinear regression, CI: 95%).
P. falciparum in vitro SYBR green fluorescence-based assays The anti-malarial activity of individual analogues were evaluated in-vitro against P. falciparum 3D7 (MRA-102, drug […]
green-I based fluorescence assay. Parasite growth rate and stages of development were determined via microscopy through Giemsa-stained smears of the cultures. Serial dilutions of the compounds ranging from 10uM-0.5nM were prepared in 96-well plates (Corning, Costar 3904) followed by […]
hematocrit added to each well. Eight wells were treated with vehicle control (DMSO) as control.
Plates were incubated in a modular incubation chamber (Billups-Rothenberg, Del Mar, CA)

Sequence of BSEP (bile salt export pump) (O95342 whole entry, species assumed): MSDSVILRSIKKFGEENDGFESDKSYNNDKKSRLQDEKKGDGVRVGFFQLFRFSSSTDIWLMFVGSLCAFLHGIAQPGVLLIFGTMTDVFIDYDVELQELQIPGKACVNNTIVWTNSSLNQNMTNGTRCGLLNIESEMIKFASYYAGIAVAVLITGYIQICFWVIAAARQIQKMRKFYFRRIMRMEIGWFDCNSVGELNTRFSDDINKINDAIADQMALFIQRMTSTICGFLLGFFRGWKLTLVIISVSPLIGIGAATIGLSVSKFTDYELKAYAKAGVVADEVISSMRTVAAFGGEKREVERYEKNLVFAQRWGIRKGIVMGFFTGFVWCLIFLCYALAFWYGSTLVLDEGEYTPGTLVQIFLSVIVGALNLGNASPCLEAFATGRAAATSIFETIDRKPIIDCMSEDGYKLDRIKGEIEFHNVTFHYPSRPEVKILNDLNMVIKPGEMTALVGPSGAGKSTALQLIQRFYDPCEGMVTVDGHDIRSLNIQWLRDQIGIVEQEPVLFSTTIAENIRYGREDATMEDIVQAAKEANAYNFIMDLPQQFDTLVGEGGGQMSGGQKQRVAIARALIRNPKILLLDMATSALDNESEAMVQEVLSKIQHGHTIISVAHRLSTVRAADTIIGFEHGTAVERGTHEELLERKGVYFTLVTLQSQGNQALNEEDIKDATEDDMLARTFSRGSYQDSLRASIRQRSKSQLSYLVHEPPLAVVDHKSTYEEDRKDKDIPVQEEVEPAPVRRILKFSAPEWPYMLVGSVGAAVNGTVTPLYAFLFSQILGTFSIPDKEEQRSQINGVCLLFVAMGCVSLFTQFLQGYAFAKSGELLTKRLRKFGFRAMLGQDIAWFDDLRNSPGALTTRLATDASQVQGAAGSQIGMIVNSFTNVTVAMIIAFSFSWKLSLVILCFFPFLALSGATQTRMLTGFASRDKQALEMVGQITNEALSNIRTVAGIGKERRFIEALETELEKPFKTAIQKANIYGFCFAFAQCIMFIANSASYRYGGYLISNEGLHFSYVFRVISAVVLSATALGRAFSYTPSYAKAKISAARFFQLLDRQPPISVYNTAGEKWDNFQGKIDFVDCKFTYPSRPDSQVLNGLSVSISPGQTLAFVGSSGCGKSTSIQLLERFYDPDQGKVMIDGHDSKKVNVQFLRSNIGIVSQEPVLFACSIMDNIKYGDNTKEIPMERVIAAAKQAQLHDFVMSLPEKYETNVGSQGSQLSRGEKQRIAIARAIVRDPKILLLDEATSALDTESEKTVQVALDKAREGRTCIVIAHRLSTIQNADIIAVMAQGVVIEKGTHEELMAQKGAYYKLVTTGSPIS

## [C-]#[N+][C@]1(C)CC[C@H]2[C@@H]([C@@H](C(C)C)CC[C@]2(C)[N+]#[C-])[C@H]1O [MED6-189]
[1]
  IC50: 50000 nM
[2]
  effect on asexual intraerythrocytic development: unable to fully undergo schizogony or reinvasion
[3]; 3D7 Parental, drug-sensitive parental line
  IC50: 15 nM
[3]; Plasmodium falciparum, 3D7, 3D7 Clone (drug sensitive)
  IC50: 13 nM
[3]; Plasmodium falciparum, 3D7, 3D7 Parental, drug-sensitive parental line
  IC50: ~14 nM
